Measurements reported in patent US10278971B2, “Fluorocyclopentenylcytosine methods of use” (Rexahn Pharmaceuticals, Inc., priority 2015, dated 2019).

What was measured:
Type in all cases: cell-based, human
[1] = system: DNMT1; test: DNMT enzyme activity in isolated nuclei (DNA methyltransferase assay kit); settings: A2780 nuclear extracts, 1 μM, 24 hr
Method: (§1) DNMT1 protein expression was measured by Western Blotting after exposure to RX-3117 for 24 or 48 hr. DNMT1 RNA expression was measured by real-time PCR after 24 and 48 hr exposure to RX-3117. DNMT enzyme activity was measured in isolated nuclei after exposure 1 μM RX-3117 or 5 μM aza-CdR using a DNA methyltransferase assay kit provided by EpiGentek using the ability of a CpG dinding domain to bind to methylated DNA. In A549 cells the effect of 5 μM RX-3117 on overall methylation was measured with a specific antibody against 5-methyl-cytosine. Bands on Western blots were visualized using appropriate InfraRedDye using an Odyssey InfraRed imager.

[2] = system: DNMT1; test: DNMT1 protein expression by Western Blotting; settings: for downregulation of DNMT1 protein expression: A549 and SW1573, 5-50 μM
Method: (§2) The mechanism of cell cycle arrest was investigated by measuring cell cycle proteins expression using western blotting. The influence of RX-3117 on protein expression during different treatment conditions was analyzed by western blot. Cells were lysed using cell lysis buffer 1× (Cell Signaling, Danvers, Mass., USA) containing 4% protease inhibitor cocktail (Roche Diagnostics, Mannheim, Germany) on ice for 30 minutes and centrifuged for 10 minutes at 4° C. at 14,000 rpm. The protein containing supernatant was collected and the Bio-Rad assay was performed to determine protein amount as described in Lemos et al., Pharmacogenomics, 12(2):159-70 (2011). The following antibodies were used for protein expression: DNMT1 (Cell Signaling, 1:1000 #5032S), DNMT3A (Cell Signaling 1:1000 #2160S), DNMT3B (Abcam, 1; 1000), Chk2 (Cell Signaling 1:1000 #6334P), Chk1 (Cell Signaling 1:1000), p-CDC25C (Cell Signaling 1:1000 #4901S), Cdk1 (Cell Signaling 1:1000 #9112S), Cdk2 (Cell Signaling 1:1000 #2546S), wee1 (Cell Signaling 1:1000), 5139-γH2A.X (Cell Signaling, 1:1000), β actin (Sigma, 1:10,000), Caspase 9 (Cell Signaling, 1:1000), PARP (Roche 2003, 1:1000), p53 (Cell Signaling, 1:1000, #9282). The antibodies were diluted in 1:1 solution Rockland buffer (Rockland Inc., Philadelphia, Pa., USA) and PBS supplemented with 0.05% Tween® 20. The proteins were separated in 20% SDS-PAGE and transferred to a PVDF membrane. For fluorescent signal secondary antibodies goat anti-mouse InfraRedDye and goat anti-rabbit InfraRedDye were used. The proteins were detected by an Odyssey InfraRed Imager (Li-COR Bioscience, Lincoln, Nebr., USA).
as §1

[3] = system: SW1573 cells; test: Protein expression by western blot
Method: as §2
(§3) The influence of RX-3117 on protein expression during different treatment conditions was analyzed by western blot. Cells were lysed using 1× cell lysis buffer (Cell Signaling, Danvers, Mass., USA) containing 4% protease inhibitor cocktail (Roche Diagnostics, Mannheim, Germany) on ice for 30 minutes and centrifuged for 10 minutes at 4° C. at 14,000 rpm. Bio-Rad assay was performed to determine protein amount in the collected supernatant as described earlier (Lemos C, Kathmann I, Giovannetti E, Calhau C, Jansen G and Peters G J: Impact of cellular folate status and epidermal growth factor receptor expression on BCRP/ABCG2-mediated resistance to gefitinib and erlotinib. Br J Cancer 100: 1120-7, 2009). The following antibodies were used for protein expression: γH2A.X (cat#9718, Cell Signaling, 1:1000), β-actin (Sigma, 1:10,000), Cdc25C Ser216 (cat#4901, Cell Signaling, 1:1000), Cdk1 Tyr15 (cat#9111, Cell Signaling, 1:1000), […] (cat#2197S, Cell Signaling, 1:1000), Histone 3 (cat#4499, Cell Signaling). Antibodies were diluted in 1:1 solution with Rockland buffer (Rockland Inc, Philadelphia, Pa.) and phosphate buffered saline (PBS) supplemented with 0.05 Tween 20. Proteins were separated in 20% SDS-PAGE gel and transferred to polyvinylidene difluoride (PVDF) membrane. For fluorescent signal secondary anti-bodies goat anti-mouse InfraRedDye and goat anti-rabbit InfraRedDye were used. Proteins were detected by an Odyssey InfraRed Imager (Li-COR Bioscience, Lincoln, Nebr.).

[4] = system: A549 cells; test: Protein expression by western blot
Method: as §2, §3

[5] = SW1573, 10 μM, 48 hour exposure
[6] = SW1573, 24 hour exposure to increasing concentrations

Compound: Nc1ccn([C@@H]2C(F)=C(CO)[C@@H](O)[C@H]2O)c(=O)n1 [RX-3117, 4-amino-1-((1S,4R,5S)-2-fluoro-4,5-dihydroxy-3-hydroxymethyl-cyclopent-2-enyl)-1H-pyrimidin-2-one]
- inhibition of DNMT1 activity [1]: 32%
- DNMT1 protein expression ([2]; A549, at higher dose (1-75 μM tested)): down regulates
- downregulation of DNMT1 protein expression ([2]; 24 hour exposure): 5-20%
- downregulation of DNMT1 protein expression ([2]; 48 hr): > 90%
- DNMT1 protein expression ([2]; A2780, 1 μM, 24 hr): protein down regulation was already observed
- γH2A.X protein expression, combination with irradiation ([3]; SW1573, 0.3 μM plus irradiation): more pronounced
- double strand break damage marker γH2A.X ([3]; SW1573, 0.3 μM, 48 h exposure): increased
- expression of p16INK4A and MGMT ([3]; SW1573, 5 μM, 24 hr exposure): increased
- Chk1 and Cdk2 expression levels [3, 5]: increased
- p-Cdc25C expression levels [3, 5]: decreasing
- cleaved PARP [3, 6]: induced cleaved PARP
- pro-caspase 9 [3, 6]: decreased
- wee1 expression levels [3, 6]: decreased
- double-strand breaks (DSB), biomarker γH2A.X ([3]; SW1573, 48 hour exposure): induced double-strand breaks
- p53 expression levels ([4]; A549, 1 μM and 5 μM): increased
- expression of p16INK4A and MGMT ([4]; A549, 5 μM, 24 hr exposure): increased
- DNMT3A and DNMT3B expression levels ([4]; A549, 1-75 μM): increased
- pro-caspase 9 ([4]; A549, 24 hour exposure to increasing concentrations): decreased
